Test results published in US20250154169A1, “COMPOUNDS AND METHODS FOR MODULATING SPLICING” (REMIX THERAPEUTICS INC., priority 2021, published 2025).
Read-outs that look alike come from different tables or passages of the source.

Columns and labels:
Type in all cases: cell-based, human
[1] = test system: MYB mRNA; assay: Splicing RT-qPCR assay, MYB canonical (CJ) and alternative (AJ) junction mRNA
How it was run: (§1)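 Canonical (CJ) and alternative-exon (AJ) junction mRNAs quantified by one-step RT-qPCR in cell lysates, normalized to housekeeping PPIA for A673 and GAPDH or GUSB for K562. Cells were exposed 24 h at 37 °C to 11-point 3-fold compound series from 10 uM final, with DMSO at or below 0.25%.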

[2] = test system: SMN2 mRNA; assay: Splicing RT-qPCR gene panel, SMN2 canonical junction (CJ) mRNA; conditions: Tables 4A/4B, read-out: SMN2 (IC50, decrease in CJ mRNA, gene panel)
How it was run: (§2)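 First, A673 cells adhered 24 h before dosing, while K562 cells were plated and dosed directly. Both lines were then exposed to compound for 24 h at 37 °C, 5% CO2, top concentration 10 uM. Finally, lysates underwent RT-qPCR of the canonical junction, with ΔΔCt-based relative quantification.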

[3] = test system: HTT mRNA; assay: Splicing RT-qPCR assay, HTT canonical (CJ) and alternative (AJ) junction mRNA
How it was run: as §1

[4] = test system: HTT mRNA; assay: Splicing RT-qPCR gene panel, HTT canonical junction (CJ) mRNA; conditions: Tables 4A/4B, read-out: HTT (IC50, decrease in CJ mRNA, gene panel)
How it was run: as §2

[5] = test system: Target C mRNA; assay: Splicing RT-qPCR gene panel, Target C canonical junction (CJ) mRNA; conditions: Tables 4A/4B, read-out: Target C (IC50, decrease in CJ mRNA, gene panel)
How it was run: as §2

[6] = Homo sapiens, 24 h, A673 or K562 cells, 24 hours compound treatment, RT-qPCR, read-out: MYB AJ (AC50, increase in alternative junction mRNA)
[7] = Homo sapiens, 24 h, A673 or K562 cells, 24 hours compound treatment, RT-qPCR, read-out: MYB CJ (IC50, decrease in canonical junction mRNA)
[8] = Homo sapiens, Tables 4A/4B, canonical junction qPCR panel, read-out: MYB (IC50, decrease in CJ mRNA, gene panel)
[9] = Homo sapiens, 24 h, A673 or K562 cells, 24 hours compound treatment, read-out: HTT CJ (IC50, decrease in canonical junction mRNA)
[10] = Homo sapiens, A673 or K562 cells, 24 hours compound treatment, read-out: HTT AJ (AC50, increase in alternative junction mRNA)
[11] = Homo sapiens, Table 3B, canonical junction mRNA, RT-qPCR, read-out: MYB CJ (IC50, decrease in CJ mRNA)
[12] = Homo sapiens, Table 3B, alternative junction mRNA, RT-qPCR, read-out: MYB AJ (AC50, increase in AJ mRNA)
[13] = Homo sapiens, Table 3B, alternative junction mRNA, read-out: HTT AJ (AC50, increase in AJ mRNA)
[14] = Homo sapiens, Table 3B, canonical junction mRNA, read-out: HTT CJ (IC50, decrease in CJ mRNA)

Cc1nc2c(F)cc(NC(=O)c3ccc(N4CCNCC4)c4cn(C)nc34)cn2n1 [Compound 462, N-{8-fluoro-2-methyl-[1,2,4]triazolo[1,5-a]pyridin-6-yl}-2-methyl-4-(piperazin-1-yl) indazole-7-carboxamide]
> 10000 nM: IC50 ([5]; Homo sapiens)
100 to 1000 nM: IC50 [3, 9] | AC50 [3, 10] | IC50 ([4]; Homo sapiens)
< 100 nM: AC50 [1, 6] | IC50 [1, 7] | IC50 [1, 8] | IC50 ([2]; Homo sapiens)

CCn1cc2c(N3CC[C@@H](NC)C3)ccc(C(=O)Nc3cc(F)c4nc(C)cn4c3)c2n1 [Compound 469, (R)-2-ethyl-N-(8-fluoro-2-methylimidazo[1,2-a]pyridin-6-yl)-4-(3-(methylamino)pyrrolidin-1-yl)-2H-indazole-7-carboxamide]
> 10000 nM: AC50 ([1]; A673 or K562 cells, 24 hours compound treatment, RT-qPCR, read-out: MYB AJ (AC50, increase in alternative junction mRNA)) | IC50 ([1]; A673 or K562 cells, 24 hours compound treatment, RT-qPCR, read-out: MYB CJ (IC50, decrease in canonical junction mRNA)) | IC50 [1, 8] | IC50 ([2]; Homo sapiens) | AC50 ([3]; A673 or K562 cells, 24 hours compound treatment, read-out: HTT AJ (AC50, increase in alternative junction mRNA)) | IC50 ([3]; A673 or K562 cells, 24 hours compound treatment, read-out: HTT CJ (IC50, decrease in canonical junction mRNA)) | IC50 ([4]; Homo sapiens) | IC50 ([5]; Homo sapiens)

Cc1nnc2n1CC(NC(=O)c1ccc(N3CCNCC3)c3cn(C)nc13)CC2 (stereo not shown) [Compound 470, 2-methyl-N-{3-methyl-5H,6H,7H,8H-[1,2,4]triazolo[4,3-a]pyridin-6-yl}-4-(piperazin-1-yl) indazole-7-carboxamide]
> 10000 nM: AC50 [1, 6] | IC50 [1, 7] | IC50 [1, 8] | IC50 ([2]; Homo sapiens) | IC50 [3, 9] | AC50 [3, 10] | IC50 ([4]; Homo sapiens) | IC50 ([5]; Homo sapiens)

CCn1cc2c(N3CC[C@H](N(C)C)C3)cc(F)c(C(=O)Nc3cc(F)c4nc(C)cn4c3)c2n1 [Compound 472, 4-[(3S)-3-(dimethylamino)pyrrolidin-1-yl]-2-ethyl-6-fluoro-N-{8-fluoro-2-methylimidazo[1,2-a]pyridin-6-yl}indazole-7-carboxamide]
1000 to 10000 nM: AC50 [3, 10]
> 10000 nM: IC50 [3, 9] | IC50 ([4]; Homo sapiens) | IC50 ([5]; Homo sapiens)
< 100 nM: AC50 [1, 6] | IC50 [1, 7] | IC50 [1, 8] | IC50 ([2]; Homo sapiens)

CCn1cc2c(N3CC[C@@H](N(C)C)C3)cc(F)c(C(=O)Nc3cc(F)c4nc(C)cn4c3)c2n1 [Compound 473, 4-[(3R)-3-(dimethylamino)pyrrolidin-1-yl]-2-ethyl-6-fluoro-N-{8-fluoro-2-methylimidazo[1,2-a]pyridin-6-yl}indazole-7-carboxamide; bis(trifluoroacetic acid)]
1000 to 10000 nM: IC50 [3, 9] | AC50 [3, 10] | IC50 ([4]; Homo sapiens)
> 10000 nM: IC50 ([5]; Homo sapiens)
< 100 nM: AC50 [1, 6] | IC50 [1, 7] | IC50 [1, 8] | IC50 ([2]; Homo sapiens)

CCn1cc2c(N3CCNCC3)cc(F)c(C(=O)Nc3cc(F)c4nc(C)cn4c3)c2n1 [Compound 474, 2-ethyl-6-fluoro-N-{8-fluoro-2-methylimidazo[1,2-a]pyridin-6-yl}-4-(piperazin-1-yl) indazole-7-carboxamide]
1000 to 10000 nM: IC50 ([5]; Homo sapiens)
< 100 nM: AC50 [1, 6] | IC50 [1, 7] | IC50 [1, 8] | IC50 ([2]; Homo sapiens) | IC50 [3, 9]
100 to 1000 nM: AC50 [3, 10] | IC50 ([4]; Homo sapiens)

CCn1cc2c(N3C[C@@H](C)N[C@@H](C)C3)cc(F)c(C(=O)Nc3cc(F)c4nc(C)cn4c3)c2n1 [Compound 475, 4-[(3R,5S)-3,5-dimethylpiperazin-1-yl]-2-ethyl-6-fluoro-N-{8-fluoro-2-methylimidazo[1,2-a]pyridin-6-yl}indazole-7-carboxamide; trifluoroacetic acid]
< 100 nM: AC50 [1, 6] | IC50 [1, 7] | IC50 [1, 8] | IC50 ([2]; Homo sapiens)
1000 to 10000 nM: IC50 ([5]; Homo sapiens)
100 to 1000 nM: IC50 [3, 9] | AC50 [3, 10] | IC50 ([4]; Homo sapiens)

CCn1cc2c(NC3CCNCC3)ccc(C(=O)Nc3cc(F)c4nc(C)cn4c3)c2n1 [Compound 476, 2-ethyl-N-{8-fluoro-2-methylimidazo[1,2-a]pyridin-6-yl}-4-(piperidin-4-ylamino) indazole-7-carboxamide]
1000 to 10000 nM: AC50 [1, 6] | IC50 [1, 7] | IC50 [1, 8] | AC50 [3, 10] | IC50 ([5]; Homo sapiens)
100 to 1000 nM: IC50 ([2]; Homo sapiens) | IC50 [3, 9] | IC50 ([4]; Homo sapiens)

CCn1cc2c(N3CC4(CNC4)C3)ccc(C(=O)Nc3cc(F)c4nc(C)cn4c3)c2n1 [Compound 477, 4-{2,6-diazaspiro[3.3]heptan-2-yl}-2-ethyl-N-{8-fluoro-2-methylimidazo[1,2-a]pyridin-6-yl}indazole-7-carboxamide]
1000 to 10000 nM: IC50 [3, 9] | IC50 ([4]; Homo sapiens)
> 10000 nM: AC50 [3, 10] | IC50 ([5]; Homo sapiens)
100 to 1000 nM: AC50 [1, 6] | IC50 [1, 7] | IC50 [1, 8] | IC50 ([2]; Homo sapiens)

Cc1cn2cc(NC(=O)c3ccc(N4CCNCC4)n4cc(C)nc34)cc(F)c2n1 [Compound 908]
< 100 nM: IC50 [1, 11] | IC50 [1, 8] | AC50 [1, 12] | IC50 ([2]; Homo sapiens)
1000 to 10000 nM: IC50 ([5]; Homo sapiens)
100 to 1000 nM: AC50 [3, 13] | IC50 [3, 14] | IC50 ([4]; Homo sapiens)

CCc1cc2c(N3CCNCC3)ccc(C(=O)Nc3cc(F)c4nc(C)cn4c3)n2n1 [Compound 916]
< 100 nM: AC50 ([1]; Table 3B, alternative junction mRNA, RT-qPCR, read-out: MYB AJ (AC50, increase in AJ mRNA)) | IC50 ([1]; Table 3B, canonical junction mRNA, RT-qPCR, read-out: MYB CJ (IC50, decrease in CJ mRNA)) | IC50 ([1]; Tables 4A/4B, canonical junction qPCR panel, read-out: MYB (IC50, decrease in CJ mRNA, gene panel)) | IC50 [2]
100 to 1000 nM: AC50 ([3]; Table 3B, alternative junction mRNA, read-out: HTT AJ (AC50, increase in AJ mRNA)) | IC50 ([3]; Table 3B, canonical junction mRNA, read-out: HTT CJ (IC50, decrease in CJ mRNA)) | IC50 [4] | IC50 [5]

Cc1cn2cc(NC(=O)c3ncc(N4CCNCC4)c4cn(C)nc34)cc(F)c2n1 [Compound 932]
100 to 1000 nM: IC50 ([2]; Homo sapiens)
1000 to 10000 nM: IC50 [1, 11] | IC50 [1, 8] | AC50 [1, 12]
> 10000 nM: AC50 [3, 13] | IC50 [3, 14] | IC50 ([4]; Homo sapiens) | IC50 ([5]; Homo sapiens)

Cc1cn2cc(NC(=O)c3ccc(N4CCNCC4)c4cc(C)nn34)cc(F)c2n1 [Compound 940]
100 to 1000 nM: AC50 [3, 13] | IC50 ([5]; Homo sapiens)
< 100 nM: IC50 [1, 11] | IC50 [1, 8] | AC50 [1, 12] | IC50 ([2]; Homo sapiens) | IC50 [3, 14] | IC50 ([4]; Homo sapiens)

Cc1cn2cc(NC(=O)c3ccc(N4CCNCC4)c4csnc34)cc(F)c2n1 [Compound 941]
100 to 1000 nM: AC50 [3, 13] | IC50 [3, 14] | IC50 ([4]; Homo sapiens)
< 100 nM: IC50 [1, 11] | IC50 [1, 8] | AC50 [1, 12] | IC50 ([2]; Homo sapiens)
1000 to 10000 nM: IC50 ([5]; Homo sapiens)
